Data as given in PubChem BioAssay (NCI).
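Each compound was tested at five concentrations against cells in 96-well plates for 48 hours. The concentration for full growth arrest is given as TGI.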

What was measured:
Assay in all cases: inhibition of tumour cell growth, NCI panel, 48 h
TK-10 renal = tested on: TK-10 renal
SK-OV-3 ovarian = tested on: SK-OV-3 ovarian
M14 melanoma = tested on: M14 melanoma
HCT-116 colon = tested on: HCT-116 colon
786-0 renal = tested on: 786-0 renal
SF-295 CNS = tested on: SF-295 CNS
NCI-H226 lung = tested on: NCI-H226 lung
OVCAR-4 ovarian = tested on: OVCAR-4 ovarian
MALME-3M melanoma = tested on: MALME-3M melanoma
OVCAR-5 ovarian = tested on: OVCAR-5 ovarian
SNB-19 CNS = tested on: SNB-19 CNS
MDA-MB-435 = tested on: MDA-MB-435
EKVX NSCLC = tested on: EKVX NSCLC
SR leukemia = tested on: SR leukemia
HT29 colon = tested on: HT29 colon
HOP-62 NSCLC = tested on: HOP-62 NSCLC
MDA-MB-231 breast = tested on: MDA-MB-231 breast
MDA-N = tested on: MDA-N
A549 NSCLC = tested on: A549 NSCLC
NCI/ADR-RES ovarian = tested on: NCI/ADR-RES ovarian
HCC-2998 colon = tested on: HCC-2998 colon
IGROV1 ovarian = tested on: IGROV1 ovarian
CCRF-CEM leukemia = tested on: CCRF-CEM leukemia
T-47D breast = tested on: T-47D breast
RPMI-8226 leukemia = tested on: RPMI-8226 leukemia
HCT-15 colon = tested on: HCT-15 colon
SK-MEL-28 melanoma = tested on: SK-MEL-28 melanoma
OVCAR-8 ovarian = tested on: OVCAR-8 ovarian
SNB-75 CNS = tested on: SNB-75 CNS
SW-620 colon = tested on: SW-620 colon
ACHN renal = tested on: ACHN renal
HS 578T breast = tested on: HS 578T breast
SF-268 CNS = tested on: SF-268 CNS
UACC-257 melanoma = tested on: UACC-257 melanoma
SK-MEL-5 melanoma = tested on: SK-MEL-5 melanoma
NCI-H23 lung = tested on: NCI-H23 lung
MCF7 breast = tested on: MCF7 breast
SN12C renal = tested on: SN12C renal
A498 renal = tested on: A498 renal
U251 CNS = tested on: U251 CNS
K-562 leukemia = tested on: K-562 leukemia
RXF 393 renal = tested on: RXF 393 renal
NCI-H522 lung = tested on: NCI-H522 lung
DU-145 prostate = tested on: DU-145 prostate
HOP-92 NSCLC = tested on: HOP-92 NSCLC
NCI-H460 lung = tested on: NCI-H460 lung
CAKI-1 renal = tested on: CAKI-1 renal
UACC-62 melanoma = tested on: UACC-62 melanoma
PC-3 prostate = tested on: PC-3 prostate
COLO 205 colon = tested on: COLO 205 colon
SF-539 CNS = tested on: SF-539 CNS
MOLT-4 leukemia = tested on: MOLT-4 leukemia
LOX IMVI melanoma = tested on: LOX IMVI melanoma
KM12 colon = tested on: KM12 colon
OVCAR-3 ovarian = tested on: OVCAR-3 ovarian
HL-60(TB) leukemia = tested on: HL-60(TB) leukemia

Measured: TGI

CCCCCCCCCCCCCCCCCCOCC(CCP(=O)(CP(=O)(O)O)Oc1ccccc1)OCCCCCCCCCCCCCCCCCC (stereo unspecified)
> 100 µM: all assays above
